{"source": "patent US20230323292A1", "about": "“METHODS FOR PRODUCING A (THREE DIMENSIONAL) NEURAL TISSUE” (TECHNISCHE UNIVERSITEIT EINDHOVEN, priority 2020, published 2023)", "tested_on": "MARC-produced cerebral tissues", "test": "Live calcium imaging of interconnected MARC-produced cerebral tissues in the iS3CC chip after Penicillin G treatment of one chamber", "assay_type": "cell-based, human", "protocol": "The transparent PDMS devices were repeatedly washed using 70% ethanol followed by sterilization using UV light in the safety cabinets (3×5 min). After neuronal induction phase, the cells were disassociated using Accutase and resuspended in 35 μl of a mixture of cold GFR-Matrigel and differentiation medium with a 70:30 v/v ratio at a final concentration of 50,000 cells per chamber. The chips containing cells and Matrigel-medium mixture were placed in a Petri dish to prevent contamination, since the chips have an open top, and kept in an incubator at 37° C. and 5% CO2 for 5 min to polymerize the Matrigel mixture. After that, an additional 200 μl of differentiation medium was added to each chamber and the chips were placed back into the incubator. The medium was refreshed and the culture was continued as described above, with gentler handing to prevent damage to the gel and cells.\nLive calcium imaging was performed with the same widefield epifluorescence microscope, equipped with temperature, CO2, and humidity control. The tissues were incubated in the recommended concentrations of Fluo-4 direct according to the manufacturer (Molecular Probes, F10471) for 50 min in the incubator at 37° C. and 10 min at room temperature. After that, the tissues were washed five times with the neural maintenance medium. The calcium surges were recorded using an excitation of 488 nm and an emission of 530 nm every 10 seconds. Fluorescence images were obtained using a widefield epifluorescence microscope (Leica DMi8) equipped with either a 5×/0.15 HC PL Fluotar or a 10×/0.32 HC PL Fluotar objective lens. […]\nNeuronal activity was analyzed from the time-lapse images. To account for possible drifts or deformations of the tissues, the location of the cells was detected in each frame and linked across the frames using the Mosaic particle tracker plugin in ImageJ. The fluorescence intensity of each detected cell was calculated from the image intensity data using MATLAB. Occasional gaps in the time traces, due to the cells not being detected in certain frames, were filled using spline interpolation of the intensity values. The background fluorescence in each chamber was calculated in the same way using 10 arbitrarily selected cell-sized ROIs in the cell-free regions of each chamber, averaged, and subtracted from the real (cell) data. Further, the intensity values were corrected for imaging artifacts due to out-of-focus fluorescence by subtracting the mean intensity of an annular mask with an outer radius of 18 pixels and an inner radius of 9 pixels (i.e., size of the ROI) for each ROI. […]", "note": "Where a name gives a salt, the structure may show the parent alone.", "data": [{"smiles": "CC1(C)S[C@@H]2[C@H](NC(=O)Cc3ccccc3)C(=O)N2[C@H]1C(=O)O", "note": "[Penicillin G, Penicillin G sodium salt]", "values": [{"measurement": "propagation of synchronized transient peaks from treated tissue to cells in the untreated tissue (share of the time)", "setting": "4 cells per tissue, post-treatment with Penicillin G (FIG. 4e,f)", "result": "~45", "unit": "%"}, {"measurement": "fluorescence in the treated tissue compared to the baseline", "setting": "treated chamber, immediately following treatment, Penicillin G sodium salt 100 mg/ml bath application, Fluo-4 calcium imaging", "result": "increased amount of fluorescence"}, {"measurement": "neuronal activity and synchrony of transient spikes in the treated tissue", "setting": "treated chamber, post-treatment, Penicillin G 100 mg/ml, indicative for abnormal excessive discharges", "result": "increased magnitude and frequency of neuronal activity, as well as synchrony of transient spikes"}, {"measurement": "intensity and neuronal activity of neurons in the untreated chamber", "setting": "untreated chamber connected across 8 μm porous membrane, post-treatment of the other chamber", "result": "increased intensity and neuronal activity"}]}]}
